Experimental data from US20180188195A1, “SYSTEMS AND METHODS FOR MULTIPLEXED HEMOSTASIS TEST PANELS” (T2 Biosystems, Inc., priority 2015, published 2018).

Key:
[1] = tested on: platelet aggregation; assay: Platelet aggregation by whole blood aggregometry (WBA) or light transmission aggregometry (LTA); type: cell-based, human; conditions: titration of CCD
[2] = tested on: citrated plasma; assay: T2MR PT clotting time in samples from donors on Coumadin therapy; type: in vivo, human
Method: All samples were sourced from the coagulation laboratory at a local hospital. Lab protocol was to collect discarded citrated blood samples (venous draw, 1 mL minimum) from patients on Coumadin therapy with both normal and abnormal PT values. Citrated blood samples were stored at RT and within 4-5 hours of the draw time samples were spun down at 1500×g for 15 min to prepare plasma. Plasma samples were stored frozen at −70° C.
For citrated plasma, a tissue factor reagent was prepared by reconstituting the lyophilized Dade® Innovin® (tissue factor) reagent. Citrated plasma (13 μL) was mixed with 27 μL of tissue factor reagent. All reagents and disposables were adequately pre-heated. T2 values were collected with a 1 second dwell time and used to collect the T2 values as a function of time. The T2 vs. time data were collected for 120 successive measurements and fit with a five-parameter logistic fit to calculate the EC50, from which the clotting time was derived. A method comparison against the Stago ST4 system and a precision study was completed with 22 samples from normal donors not on anti-coagulant medications and 50 samples from donors on Coumadin. […] INR (international normalized ratio, a normalized PT value) values were calculated from a pool of normal healthy donors. […] This corresponds to a clotting time value that is prolonged compared to standard therapeutic ranges.

[3] = tested on: citrated whole blood; assay: T2Ex T2MR clotting time, extrinsic pathway activator (tissue factor); type: cell-based, human
Description: In one embodiment a panel is used with an extrinsic activator such as tissue factor. The clotting time T2MR measurement for normal blood can be 30-40 seconds. It can also be 8-12 seconds, 10-20 seconds, 10-40 seconds, 30-40 seconds, 30-50 seconds, 40-60 seconds, 50-60 seconds or 20-60 seconds. The international normalized ratio for normal blood can then be 0.8-1.2, or 0.87-1.13. The abnormal range of T2MR measurement of clotting time is above or below the normal range. The total range easily measured is 8-300 seconds though a measurement up to or beyond 1000 seconds could be performed with modified acquisition. If aprotinin is added in addition to tissue factor, in normal blood the clotting time is often between 27.9 and 41.6 seconds.
The general extrinsic activator protocol was as follows (T2Ex panel): an extrinsic activator solution was prepared by mixing tissue factor reagent with CaCl2. […]
The T2Ex or the T2In protocols were also used with the addition of aprotinin (T2Ex-A and T2In-A) respectively. […] The sample was mixed and read in the T2reader. […]
Rivaroxaban was spiked into citrated blood from normal donors at increasing levels. Aliquots of spiked blood were activated with tissue factor activator solution and clot times determined by T2MR. […]

[4] = tested on: plasma; assay: STAGO plasma prothrombin time (PT); type: biochemical, human; conditions: rivaroxaban spiked samples, three donors
Method: Samples from three donors were provided. Rivaroxaban spiked citrated whole blood samples were used to generate a range of clotting time measurements. An extrinsic pathway activator, such as tissue factor, was added. The T2MR clotting time (CT) range used was 32-259 seconds, and the STAGO plasma prothrombin time (PT) range was 11-47 seconds. Five replicate T2MR measurements were taken for each clotting time.

[5] = tested on: citrated whole blood; assay: T2In T2MR clotting time, intrinsic pathway activator (ellagic acid); type: cell-based, human
Description: In another embodiment a coagulopathy panel is used with an intrinsic activator such as ellagic acid. The common range of clotting time is often between 100 and 120 seconds for normal blood. However, it can be 22-30 seconds, 30-44 seconds, 44-60 seconds, 60-80 seconds, 80-100 seconds, up to 2 times to 4 times the range of normal T2MR clotting times for the extrinsic activator. The abnormal clotting time ranges are above or below the normal range. The total range easily measured is 8-300 seconds though a measurement up to or beyond 1000 seconds could be performed with modified acquisition. If aprotinin is added in addition to intrinsic activator, clotting times can often be from 110.9-151.0 seconds in normal blood.
The general intrinsic activator protocol is as follows (T2In panel): an intrinsic activator solution was prepared by mixing tissue factor reagent with CaCl2. To 36.7 μL of citrated whole blood (warmed to approximately 37° C. for 3 minutes and mixed) was added 5 μL of the intrinsic activator solution (also been warmed to approximately 37° C. for one minute). The resulting solution was mixed and subjected to T2 measurements for 50 minutes. For a given sample, a clotting time measurement was typically obtained within 5 minutes. Some examples of activators are tissue factor with phospholipids and ellagic acid with phospholipid. The reagents were placed in a tube that was subsequently placed in the magnetic field. Citrated whole blood was added and mixed. The blood was diluted 50%. The T2MR of the sample was measured for 30 minutes.
The T2Ex or the T2In protocols were also used with the addition of aprotinin (T2Ex-A and T2In-A) respectively. For the intrinsic pathway measurement (T2In), intrinsic activator solution was prepared by mixing ellagic acid stock and CaCl2. For the intrinsic pathway measurement that includes aprotinin (T2In-A), add 41.7 μL of a 1 mg/mL stock of aprotinin to 1 mL intrinsic activator solution. 36.7 μL citrated whole blood that had been warmed to approximately 37° C. for three minutes was added and mixed. […] The sample was mixed and read in the T2reader. […]

[6] = tested on: plasma; assay: STAGO aPTT; type: biochemical, human; conditions: rivaroxaban spiked samples, six donors
Method: Citrated whole blood samples from six donors were provided and spiked with rivaroxaban to generate a range of clotting times. An activator of the intrinsic coagulation pathway, (e.g. ellagic acid), was added. T2MR clotting time range was between 73-202 seconds, and the STAGO aPTT range was between 29-86 seconds. Five replicate T2MR measurements were taken for each clotting time. The specification desired was between 0.7-5% CV with 100-200 seconds of clotting time and a detection range of 60-450 seconds.

[7] = tested on: citrated whole blood; assay: T2In platelet activity and fibrinolysis measurement with tPA or aprotinin; type: cell-based, human; conditions: ellagic acid with CaCl2; tPA 0, 2 or 4 nM or aprotinin control; 65 min
Method: The T2Ex or the T2In protocols were also used with the addition of aprotinin (T2Ex-A and T2In-A) respectively. For the intrinsic pathway measurement (T2In), intrinsic activator solution was prepared by mixing ellagic acid stock and CaCl2. For the intrinsic pathway measurement that includes aprotinin (T2In-A), add 41.7 μL of a 1 mg/mL stock of aprotinin to 1 mL intrinsic activator solution. 36.7 μL citrated whole blood that had been warmed to approximately 37° C. for three minutes was added and mixed. 5 μL of intrinsic activator solution with aprotinin that had been warmed to approximately 37° C. for one minute was added. The sample was mixed and read in the T2reader. The clotting time measurement was obtained after 5 minutes and then the platelet activity and fibrinolysis measurements were obtained over the following 60 minutes. In a separate assay the effects of the amounts of activator were tested.
Platelet activity and fibrinolysis measurements for the 3 donor samples in the T2In assay are shown in FIG. 15a-15b. tPA levels of 0 nM, 2 nM or 4 nM were added to citrated whole blood. Blood samples (36.7 μL) were activated by addition of 5 μL ellagic acid solution with CaCl2. T2MR data was collected for 65 min. The addition of tPA cleaves the fibrin mesh of the clot and results in clot dissolution over time. This is detected by T2MR by the change in T2 value of the serum peak (third phase). […]

[8] = tested on: reconstituted blood samples; assay: T2MR % deltaT2 fibrinogen measurement, reconstituted blood activated with ellagic acid; type: cell-based, human
Description: The T2MR based hemostasis assays described herein can be used to discriminate normal from abnormal patient samples for fibrinogen measurements using either an extrinsic or intrinsic pathway activation. […] Citrated whole blood from normal donors was centrifuged and […] removed. Packed red blood cells were washed with fibrinogen depleted plasma. Fibrinogen depleted plasma was spiked with known amounts of fibrinogen; these spiked plasmas were used to reconstitute washed red blood cells to produce blood samples with varying fibrinogen levels. Blood samples were activated with ellagic acid activator solution and clot time and % deltaT2 were measured. Fibrinogen levels in each sample were determined by the Clauss method. […] Low fibrinogen (120 mg/dL) gave an average % deltaT2 of 4, normal level fibrinogen (343 mg/dL) gave an average % deltaT2 of 8.3 and high fibrinogen (583 mg/dL) gave an average % deltaT2 of 10.7.

Question: How did the “effect on platelet aggregation” value [1] turn out when `C=C1[C@@H](C)[C@H]2[C@H](Cc3ccccc3)NC(=O)[C@]23[C@H](OC(C)=O)/C=C/[C@@](C)(O)C(=O)[C@@H](C)C/C=C/[C@H]3[C@@H]1O` [CCD, cytochalasin D] was run?
Answer: The value was “no reproducible effect”.

Question: Which “clotting times versus normal donors not on therapy” value ([2]; citrated plasma, citrated blood and fresh whole blood) does the source give for `CC(=O)CC(c1ccccc1)c1c(O)c2ccccc2oc1=O` (centres unmarked) [Coumadin, warfarin] here?
Answer: Its value is “prolonged clotting times”.

Question: And the INR ([2]; patient on Coumadin, hypocoagulable state)?
Answer: The INR was 5.3.

Question: What about the T2MR clotting time ([2]; patient on Coumadin, hypocoagulable state, citrated plasma, tissue factor reagent) of the same compound?
Answer: The T2MR clotting time was 51.3 s.

Question: And the INR ([2]; patient undergoing Coumadin therapy but hypercoagulable)?
Answer: Its INR is 0.8.

Question: And the T2MR clotting time ([2]; patient undergoing Coumadin therapy but hypercoagulable, citrated plasma)?
Answer: Its T2MR clotting time is 8.4 s.

Question: Which results are given for `O=C(NC[C@H]1CN(c2ccc(N3CCOCC3=O)cc2)C(=O)O1)c1ccc(Cl)s1` [rivaroxaban]?
Answer: extension of clot times ([3]; 800 ng/mL spiked into citrated blood from normal donors, tissue factor activator solution): approximately 80%; T2MR clotting time (CT) range ([3]; rivaroxaban spiked citrated whole blood, three donors, range over spiked samples (Example 12)): 32 to 259 s; STAGO plasma prothrombin time (PT) range [4]: 11 to 47 s; T2MR clotting time range ([5]; rivaroxaban spiked citrated whole blood, six donors): 73 to 202 s; STAGO aPTT range [6]: 29 to 86 s

Question: With aprotinin as the compound, how does the “clotting time curves (% deltaT2)” value ([5]; T2In, 3 donors, different tPA concentrations, with or without aprotinin) read?
Answer: Its value is “appear to overlay”.

Question: And the clotting times ([5]; aprotinin added in addition to intrinsic activator, normal blood)?
Answer: Its clotting times is 110.9 to 151.0 s.

Question: What about the “change in T2 value of the serum peak (third phase)” value [7] of the same compound?
Answer: Its value is “no detected change”.

Question: For fibrinogen, which “average % deltaT2” value ([8]; high fibrinogen 583 mg/dL) is on record?
Answer: Its value is 10.7.

Question: And the “average % deltaT2” value ([8]; low fibrinogen 120 mg/dL)?
Answer: The value was 4.

Question: What about the “average % deltaT2” value ([8]; normal level fibrinogen 343 mg/dL) of the same compound?
Answer: The value was 8.3.
